# Laboratory results from patent publication US10098352B2, “Honeybee repellents and uses thereof” (Inscent, Inc., priority 2011, dated 2018).
# What was measured:
# [1] = system: Apis mellifera Carniolan foraging worker honeybees; experiment: Choice test in free-flight box apparatus; format: in vivo; conditions: for Repellence Score: percent food-weight change vs corresponding dishes in preceding test
# Protocol: To determine whether living honeybees will choice to move towards a source of a candidate compound, these compounds were assayed using a choice test in a free-flight box apparatus.
# All tests were done in a free-flight box apparatus. The apparatus comprises a 244 cm long×46 cm deep×30 cm high clear plastic box including two equally-sized independent testing chambers, each with 10 cm diameter air inlets that admit filtered room air, separated by a smaller central chamber with a screened air outlet to each testing chamber. Air can be pulled through the sealed box via a 10 cm diameter duct from the air outlet using an AQE Fume Fighter 500 fume extractor (BPA Air Quality Solutions, LLC, Charleston, S.C.), which removes the test odors using activated charcoal and HEPA filters. The box is housed in an environmentally controlled room with overhead illumination timed to correspond to the current ambient light cycle including 2 additional sets of lights timed to approximate crepuscular lighting conditions. The bottom of the apparatus was lined with clean absorbent paper marked with a 4×9 grid pattern, forming 12 cm×12 cm squares with marked coordinates.
# Apis mellifera Carniolan foraging worker honeybees were obtained from a local apiary (typically 60 bees per shipment). Thirty honeybees were put into each testing chamber and were allowed to acclimate for 24 hours with food and water freely available.
# At the beginning of each test day all food was removed from the test chamber, but water was continually available throughout all tests. For each test, approximately 0.3 g of organic, raw orange blossom honey was added to each clean small plastic weigh boat (Cole-Palmer). The honey boats were placed in small plastic culture dishes, which were distributed in the marked squares in the chambers. The positions of the dishes on the grid for a set of trials was chosen to avoid the bees' preferred resting area so that they had to find the food actively, but the same dish positions were maintained for a given set of trials. […] The honey in each boat was weighed on an analytical balance before and after the test, with the screened sample as a control for evaporative loss. The fume extractor was left off during the experimental trails, and was turned on to clear the air after the test dishes were covered and removed from the chamber at the end of each trial.
# Based on the observation that bees tend to return to dishes in the same position where they have fed before, each set of trials with each group of bees began with “Pattern Identification” tests to see which dishes lose the most weight, reflecting the most feeding. Once bees were consuming an acceptable amount in 10-15 min, typically in 1-2 trials, we began a set of test compound trials. The test compound was pipetted onto pieces of filter paper placed on the dish bottom below the boat containing a fresh, weighed honey sample so that the test compound was inaccessible to the bees. We used 2 μL of a candidate compound at a concentration of 0.05-0.5%, in Triton X-100 or paraffin oil, on each of four pieces of filter paper per dish. The test-solution dishes were set at the same positions as the one or two dishes favored in the preceding Pattern Identification trial. To eliminate interference from the solvent, the other dishes without the test substance contained the same volume of the appropriate solvent on filter papers as the test solution dishes. The bees were allowed to feed for 10-15 minutes. Bee movements were recorded by a small, wide-angle digital video camcorder (HD Hero 960; GoPro, Halfmoon Bay, Calif.) placed on a tripod in front of the test chamber. The bees were given a brief rest while the honey was weighed and a second test was begun with fresh dishes, except that the test compound-containing dish or dishes were placed at whichever positions were most visited in the preceding test. […] The bees were then rested for 1-3 hours and a subsequent set of trials begun with another Pattern Identification. […]
# OBP2 = experiment: Fluorescent-quench ligand-protein-binding assay (OBP2 binding screen); design: species or system Apis mellifera; key: Low, indicates no detectable binding to OBP2.; Moderate, indicates that 50% or less of the compound bound to OBP2.; Strong, indicates that 51% or more of the compound bound to OBP2
# Text: To identify a honeybee repellent disclosed herein, candidate compounds were screened based upon the fact that 2-heptanone is an established repellent of bees. 2-heptanone is thought to mediate its behavioral response through binding to a specific odorant-binding protein called OBP2. Therefore compounds that bind OBP2 have the potential to act as odor “mimics” of 2-heptanone. By utilizing a fluorescent-quench, ligand-protein-binding assay, 30,000 compounds from the DIVERSET® library (ChemBridge Corp., San Diego, Calif.), a chemical library, were screened and over 150 candidate compounds were isolated that bind OBP2 (Table 1). Such assays are generally known in the art. See, e.g., Briand, et al., Ligand-Binding Properties and Structural Characterization of a Novel Rat Odorant-Binding Protein Variant, Eur. J. Biochem. 267(10): 3079-3089 (2000); Briand, et al., Ligand Binding and Physico-Chemical Properties of ASP2, A Recombinant Odorant-Binding Protein From Honeybee (Apis mellifera L.), Eur. J. Biochem. 268(3): 752-760 (2001); Briand, et al., Characterization of a Chemosensory Protein (ASP3c) from Honeybee (Apis mellifera L.) as a Brood Pheromone Carrier, Eur. J. Biochem. 269(18): 4586-4596 (2002), each of which is hereby incorporated by reference in its entirety.
# [2] = system: Apis mellifera Carniolan foraging worker honeybees; experiment: Proboscis extension response (PER) assay in bees conditioned to 2-heptanone; format: in vivo; conditions: for 2-heptanone positive bees testing positive to compound: final compound concentration 0.5% (TRITON X-100/water), 4 s exposure, only bees PER-positive to 2-heptanone and negative to controls counted
# Protocol: To determine whether a living honeybee can recognize a candidate compound, these compounds were tested using a proboscis extension response (PER) assay using classical conditioning approaches. Proboscis extension response conditioning is a case of appetitive learning, in which bees learn to associate odor stimuli with sucrose reward in the laboratory. In this case, bees were conditioned to produce a PER to 2-heptanone as the conditioned stimulus and a sugar reward as the unconditioned stimulus. These trained bees were then exposed to an odor pulse of a candidate compound to test whether a candidate compound would also produce a PER. If the candidate compound “mimics” 2-heptanone then the honeybee will extend its proboscis.
# For conditioning procedures, Apis mellifera Carniolan foraging worker honeybees were obtained from a local apiary (typically 60 bees per shipment). The honeybees were held overnight in insect cages with food and water freely available, in an environmentally controlled room on a light cycle similar to the ambient cycle at the time of the assay.
# For conditioning procedures, all tests were done in an odorant delivery apparatus set inside a fume hood. The apparatus comprised a set of open-ended, horizontal, 3 cm diameter by 10 cm long plastic tubes. Each tube was designed where a honeybee could be positioned at the distal end of a tube, with the opening at the other end of the tube located proximal to an inlet of the fume hood. To deliver an odorant, room air was pumped by a diaphragm pump through a particle filter via 0.25 inch plastic tubing at approximately 0.7 m/sec. The air flow passes into the headspace above an odorant (0.5% [v/v]2-heptanone dissolved in odorless light paraffin oil) contained in a 100 mL bottle. The headspace air then passes through another plastic tube to a manifold of 4-way valves, each of which was attached near the proximal end of a plastic tube containing a bee. Each bee was exposed separately for a desired time period to the odorant by opening and closing the appropriate valve. When each valve was closed, the odor was flushed away immediately by the continuous fume hood air stream.
# To train a honeybee to respond to a conditioned and unconditioned stimuli, bees were placed, without anesthesia, in individual 1.5 mL micro-centrifuge holding tubes and held overnight without access to food or water. The holding tubes containing the starved bees were placed in racks in groups of eight. One rack at a time was placed behind the odorant delivery apparatus so that each bee's head is centered at the distal end of a horizontal plastic tube. Each bee was exposed to the 2-heptanone odorant alone for four seconds, and then while being fed an 80% sucrose solution for and additional three seconds. The sucrose solution was delivered on a piece of saturated filter paper held in forceps. […] Positive and negative responses were recorded. A positive PER was scored when a bee extended its proboscis before the sucrose appeared. In a typical trial, 48 individual bees were subjected to conditioning. Six rounds of training were done before testing began, and typically a majority of the bees were successfully conditioned by the second or third round of training.
# After conditioning, honeybees were tested with the candidate compounds the same day or on the following day or, most commonly, both. When held overnight, bees were fed with sucrose and kept in their holding tubes. When tested the day after training, bees were given one or more rounds of conditioning with 2-heptatone to refresh their memories. Candidate compounds stocks were made at 5% (w/v) in polyoxyethylene octyl phenyl ether (TRITON® X-100), a non-ionic detergent/surfactant, and stored at 4° C. This detergent is similar to substances used as carriers for a variety of commercial pest-control agents, can act as a solvent for both hydrophilic and hydrophobic substances, and is itself nearly odorless. […]
# [3] = amount 0.5%, negative = increase in food consumption
Compound,"Repellence Score [1, 3] [%]",OBP2 binding characteristic of compound (OBP2),2-heptanone positive bees testing positive to compound [2] [%],Repellence Score ([1]; amount 0.1%) [%],% Positive in PER ([2]; PER score as repeated in Table 3) [%],Effectiveness at 10-fold lower concentration ([1]; 0.05% compared with 0.5%),Repellence Score ([1]; amount 0.05%) [%]
"O=C1OC(c2ccccc2)=NC1=Cc1cccs1 [compound 9, 2-phenyl-4-(2-thienylmethylene)-1,3-oxazol-5(4H)-one]",43.3,"Moderate (Moderate, indicates that 50% or less of the compound bound to OBP2.)",9.7,–,–,–,–
"O=C(Nc1ccccc1C(=O)Nc1ccccc1Cl)c1ccccc1 [compound 10, 2-(benzoylamino)-N-(2-chlorophenyl)benzamide]",45.6,"Moderate (Moderate, indicates that 50% or less of the compound bound to OBP2.)",4.8,–,–,–,–
"COc1ccc(CN2CCN(Cc3ccccc3)CC2)c(C)c1C [compound 7, 1-benzyl-4-(4-methoxy-2,3-dimethylbenzyl)piperazine]",–,"Moderate (Moderate, indicates that 50% or less of the compound bound to OBP2.)",39.0,62.0,–,–,–
"COc1ccc(C(=O)C=Cc2cn(C)c3ccccc23)cc1 [compound 50, 1-(4-methoxyphenyl)-3-(1-methyl-1H-indol-3-yl)-2-propen-1-one]",55.7,–,22.2,–,–,–,–
"COc1ccc(C(=O)C=Cc2c(C)[nH]c3ccccc23)cc1 [compound 1, 1-(4-methoxyphenyl)-3-(2-methyl-1H-indol-3-yl)-2-propen-1-one]",57.8,"Moderate (Moderate, indicates that 50% or less of the compound bound to OBP2.)",26.6,–,–,–,–
"CC(=O)c1cc(Cl)ccc1OC(=O)c1ccc(C)cc1 [compound 40, 2-acetyl-4-chlorophenyl 4-methylbenzoate]",54.6,"Moderate (Moderate, indicates that 50% or less of the compound bound to OBP2.)",34.3,–,30.5,–,–
O=[N+]([O-])c1cc2c(cc1CN1CCN(c3ccccc3)CC1)OCO2 [compound 61],–,"Moderate (Moderate, indicates that 50% or less of the compound bound to OBP2.)",17.4,–,–,–,–
O=[N+]([O-])c1ccc(N2CCOCC2)cc1OCCOc1ccccc1 [compound 14],–,"Moderate (Moderate, indicates that 50% or less of the compound bound to OBP2.)",3.9,–,–,–,–
COc1ccc(CN2CCN(C)CC2)c(C)c1C [compound 25],–,Low*,6.6,–,–,–,–
COc1ccc2oc(C)c(C(=O)c3ccc(Br)cc3)c2c1 [compound 17],–,"Strong (Strong, indicates that 51% or more of the compound bound to OBP2.)",6.2,–,–,–,–
O=[N+]([O-])c1cc2c(cc1CN1CCN(c3ccccc3)CC1)OCO2 [compound 26],58.6,–,14.8,–,–,significantly more effective,60.0
CCCCn1c(=O)c(C(=O)NCc2ccccn2)c(O)c2ccccc21 [compound 16],–,"Strong (Strong, indicates that 51% or more of the compound bound to OBP2.)",6.2,–,–,–,–
COC(=O)C=C(C)NC(=O)c1ccc(F)cc1 [compound 59],–,"Moderate (Moderate, indicates that 50% or less of the compound bound to OBP2.)",16.7,–,–,–,–
"COc1cc(C=NO)ccc1Oc1ccc([N+](=O)[O-])cc1 [compound 3, 3-methoxy-4-(4-nitrophenoxy)benzaldehyde oxime]",49.8,–,14.5,–,–,–,–
COC(=O)c1cc(S(=O)(=O)Nc2ccc(Br)cc2)ccc1Cl [compound 44],–,"Moderate (Moderate, indicates that 50% or less of the compound bound to OBP2.)",7.3,–,–,–,–
Cc1cc(O)c(C2=Nc3ccccc3SC(c3ccc(O)cc3)C2)c(=O)o1 (stereo not drawn) [compound 35],–,"Moderate (Moderate, indicates that 50% or less of the compound bound to OBP2.)",9.0,–,–,–,–
CC1=CC(C)(C)N(C(=O)c2ccc(Br)cc2)c2ccccc21 [compound 11],–,"Moderate (Moderate, indicates that 50% or less of the compound bound to OBP2.)",4.8,–,–,–,–
